Assay results from US12291528B2, “Crystalline imidazo[4,5-b]pyridine compound, pharmaceutical compositions, and their use in treating medical conditions” (Genzyme Corporation, priority 2021, dated 2025).
Like-named read-outs stand apart in the source and are kept apart here.

Assays:
[1] = Comparison of stability: temperature of dehydration; assay type: physicochemical
Description: Stability of crystalline 3-(3-methoxy-4-((4-methoxybenzyl)oxy)benzyl)-6-(1-methyl-1H-pyrazol-4-yl)-3H-imidazo[4,5-b]pyridin-2-amine monohydrate Form 3 was compared to crystalline 3-(3-methoxy-4-((4-methoxybenzyl)oxy)benzyl)-6-(1-methyl-1H-pyrazol-4-yl)-3H-imidazo[4,5-b]pyridin-2-amine monohydrate Form 1. The physical property analyzed was temperature of dehydration. Crystalline 3-(3-methoxy-4-((4-methoxybenzyl)oxy)benzyl)-6-(1-methyl-1H-pyrazol-4-yl)-3H-imidazo[4,5-b]pyridin-2-amine monohydrate Form 1 is that described in international patent application publication WO 2016/100677.

[2] = Pharmacokinetic parameters in plasma after intra-articular administration to rats; assay type: in vivo, Sprague Dawley rats; details: for Tmax / AUC0-inf / Cmax / AUC(0-t) / Ratio Result from Compound Form 3/Compound Form 1: AUC0-672 / Ratio Result from Compound Form 3/Compound Form 1: AUC0-1344 / Ratio Result from Compound Form 3/Compound Form 1: AUC0-inf / Ratio Result from Compound Form 3/Compound Form 1: Cmax / AUC0-672 / AUC0-1344: plasma; for Tmax / AUC0-inf / Cmax / AUC(0-t) / AUC0-672 / AUC0-1344: male rat; for Tmax: range printed in row below; for AUC0-inf / Cmax / AUC(0-t) / AUC0-672 / AUC0-1344: mean
Method: (§1) Male rats were administered one of the following Test Articles via intra-articular administration to the left knee joint and thereafter pharmacokinetic properties were monitored: crystalline 3-(3-methoxy-4-((4-methoxybenzyl)oxy)benzyl)-6-(1-methyl-1H-pyrazol-4-yl)-3H-imidazo[4,5-b]pyridin-2-amine monohydrate Form 3 (“Form 3 Compound”) or crystalline 3-(3-methoxy-4-((4-methoxybenzyl)oxy)benzyl)-6-(1-methyl-1H-pyrazol-4-yl)-3H-imidazo[4,5-b]pyridin-2-amine monohydrate Form 1 (“Form 1 Compound”).
(§2) Male Sprague Dawley rats were allocated into four groups, where each group contained 12 rats having a weight in the range of 250 g to 300 g and an age of 7 to 9 weeks. Test Article was administered in the form of a suspension via intra-articular injection to the left knee joint of the rats according to the experimental design set forth in Table 1 below.
(§3) Each Test Article contained the specified methoxy-4-((4-methoxybenzyl)oxy)benzyl)-6-(1-methyl-1H-pyrazol-4-yl)-3H-imidazo[4,5-b]pyridin-2-amine monohydrate compound suspended in vehicle. Vehicle was […], 4.5% sorbitol, in aqueous phosphate buffer at pH 7.4. Each Test Article in the form of a suspension contained 20 mg/mL methoxy-4-((4-methoxy-benzyl)oxy)benzyl)-6-(1-methyl-1H-pyrazol-4-yl)-3H-imidazo[4,5-b]pyridin-2-amine monohydrate in the specified crystalline form.
Blood samples were collected from the jugular vein of the rats via syringe and needle and transferred into tubes containing K3EDTA. Blood samples were collected from the first six animals/group at 2 minutes, 10 minutes, 1 hr, 4 hr, 12 hr, 72 hr, 336 hr, and 672 hr after administration of Test Article. Blood samples were collected from the second six animals/group at 5 minutes, 0.5 hr, 2 hr, 8 hr, 24 hr, 168 hr, 1008 hr, and 1344 hr after administration of Test Article. Following centrifugation of the blood samples, plasma was cooled using dry ice until it was subjected to analytical analysis using liquid chromatograph-mass spectrometry to determine the amount of the compound methoxy-4-((4-methoxybenzyl)oxy)benzyl)-6-(1-methyl-1H-pyrazol-4-yl)-3H-imidazo[4,5-b]pyridin-2-amine.

[3] = Knee joint concentration and knee/plasma ratio after intra-articular administration to rats; assay type: in vivo, Sprague Dawley rats; details: for knee concentration of compound (in words): 0.1 mg dose, 672 hours, majority of animals
Method: as §1, §2, §3
The left knee joint (without injuring the articular capsule) of the rats together with 5-10 mm of both tibia and femur was collected from the first 6 animals/group after sacrifice at the last blood collection time point at approximately 672 hours postdose. The harvested knee joint was weighed. The left knee joint (without injuring the articular capsule) of the rats together with 5-10 mm of both tibia and femur was collected from the second 6 animals/group after sacrifice at the last blood collection time point at approximately 1344 hours postdose. The harvested knee joint was weighed. Tissue samples were maintained on dry ice prior to storage at −60 to −80° C. The knee joint samples were pulverized, then extracted with acetonitrile/water to provide a solution that was analyzed by using liquid chromatograph-mass spectrometry to determine the amount of the compound methoxy-4-((4-methoxybenzyl)oxy)benzyl)-6-(1-methyl-1H-pyrazol-4-yl)-3H-imidazo[4,5-b]pyridin-2-amine.

[4] = Dynamic vapor sorption; assay type: physicochemical; details: 25° C., 2 cycles of increasing and decreasing relative humidity, steps of 5% RH
Method: A dynamic vapor sorption isotherm plot of crystalline 3-(3-methoxy-4-((4-methoxybenzyl)oxy)benzyl)-6-(1-methyl-1H-pyrazol-4-yl)-3H-imidazo[4,5-b]pyridin-2-amine monohydrate Form 3 is provided in FIG. 3. The dynamic vapor sorption isotherm plot results are from the procedure where after a drying stage at 0% relative humidity, compound sample was exposed to 2 cycles of increasing and decreasing relative humidity at 25° C., with steps of 5% relative humidity, where mass of the sample was recorded throughout the experiment.

[5] = Dialysis dissolution in simulated intra-articular fluid; assay type: physicochemical; details: for average release rate: at the 7 day time point, PBS pH 7.4 with BSA, 37° C.; for average release rate / one-half dissolution time: listed as crystalline 3-(3-methoxy-4-(4-methoxybenzyl)oxy)benzyl)-6-(1-methyl-1H-pyrazol-, monohydrate; for one-half dissolution time: dialysis bag, BSA/sodium hyaluronate in PBS pH 7.4, 37° C., 20 RPM
Method: Dialysis dissolution of the following Test Compositions in simulated intra-articular fluid was analyzed: • Crystalline 3-(3-methoxy-4-((4-methoxybenzyl)oxy)benzyl)-6-(1-methyl-1H-pyrazol-4-yl)-3H-imidazo[4,5-b]pyridin-2-amine Monohydrate Form 3, and • Crystalline 3-(3-methoxy-4-((4-methoxybenzyl)oxy)benzyl)-6-(1-methyl-1H-pyrazol-4-yl)-3H-imidazo[4,5-b]pyridin-2-amine Monohydrate Form 1.
Procedurally, Test Composition was placed into a dialysis bag along with Medium A. The dialysis bag was then closed and placed into a closed bottle containing Medium B. Medium A and B were preheated to 37° C. before use in the experiment. The closed bottles were placed into a rotating mixer system operating at 20 RPM so as to avoid suspension sedimentation inside the dialysis bag. An aliquot of Medium B from the bottle was removed at the following time points and analyzed by high-performance liquid chromatography with UV detection to determine the amount of 3-(3-methoxy-4-((4-methoxybenzyl)oxy)benzyl)-6-(1-methyl-1H-pyrazol-4-yl)-3H-imidazo[4,5-b]pyridin-2-amine in Medium B due to dialysis dissolution of the Test Composition from Medium A through the dialysis bag to Medium B: 3 hr, 6 hr, 24 hr, 29 hr, 48 hr, 72 hr, 144 hr, 168 hr, 192 hr, 216 hr, and 240 hr. One Test Composition was analyzed at the 360 hour timepoint. Medium A was bovine serum albumin (BSA) at 40 g/L (+0.2 g/L sodium azide), sodium hyaluronate at 3 g/L in reconstituted phosphate buffer saline pH 7.4. Medium B was bovine serum albumin (BSA) at 40 g/L (+0.2 g/L sodium azide) in reconstituted phosphate buffer saline pH 7.4.

[6] = 0.1 mg/knee intra-articular, monohydrate
[7] = 1 mg/knee intra-articular, monohydrate
[8] = 0.1 mg/knee, 672 hr, monohydrate
[9] = 1 mg/knee, 1344 hr, monohydrate

## COc1ccc(COc2ccc(Cn3c(N)nc4cc(-c5cnn(C)c5)cnc43)cc2OC)cc1 [Form 3 Compound, 3-(3-methoxy-4-((4-methoxybenzyl)oxy)benzyl)-6-(1-methyl-1H-pyrazol-4-yl)-3H-imidazo[4,5-b]pyridin-2-amine monohydrate]
[1]
  thermodynamic stability compared to monohydrate Form 1: thermodynamically more stable
[1]; heated
  temperature of dehydration: 130 °C
[2]; Sprague Dawley, 1 mg/knee intra-articular
  Tmax: 4 h
[2]; intra-articular, rat
  absorption compared to Form 1 Compound: slower and more prolonged
[2]; male, Sprague Dawley, rat, 1 mg, 1 mg/knee intra-articular, read-out: AUC0-inf
  AUC0-inf: 8040 ng·h/mL
[2]; male, Sprague Dawley, rat, 1 mg, 1 mg/knee intra-articular, read-out: Cmax
  Cmax: 52.1 ng/mL
[2]; male, Sprague Dawley, rat, 1 mg, 1 mg/knee intra-articular, summary from second six animals, read-out: AUC0-1344
  AUC(0-t): 7100 ng·h/mL
[2]; 0.1 mg/knee
  Ratio Result from Compound Form 3/Compound Form 1: AUC0-672: 0.508
  Ratio Result from Compound Form 3/Compound Form 1: AUC0-1344: 0.611
  Ratio Result from Compound Form 3/Compound Form 1: AUC0-inf: 0.587
  Ratio Result from Compound Form 3/Compound Form 1: Cmax: 0.332
[2]; 1 mg/knee
  Ratio Result from Compound Form 3/Compound Form 1: AUC0-672: 0.494
  Ratio Result from Compound Form 3/Compound Form 1: AUC0-1344: 0.640
  Ratio Result from Compound Form 3/Compound Form 1: AUC0-inf: 0.681
  Ratio Result from Compound Form 3/Compound Form 1: Cmax: 0.728
[2]; [6]
  AUC0-672: 686 ng·h/mL
  AUC0-inf: 757 ng·h/mL
  Cmax: 11.4 ng/mL
[2]; 0.1 mg/knee intra-articular, summary from second six animals, monohydrate
  AUC0-1344: 813 ng·h/mL
[2]; [7]
  AUC0-672: 5240 ng·h/mL
[3]; monohydrate
  knee concentration of compound (in words): consistently higher than the concentration
[3]; 0.1 mg/knee, 672 hr
  Knee concentration: Ratio of Form 3 Compound/Form 1 Compound: 5.62
  Knee/plasma ratio: Ratio of Form 3 Compound/Form 1 Compound: 0.733
[3]; [8]
  Mean Knee Concentration of Compound: 4790 ng/g
  Mean Knee/Plasma Concentration Ratio: 43100
[3]; 0.1 mg/knee, 1344 hr
  Mean Knee/Plasma Concentration Ratio: 77400
[3]; 1 mg/knee, 672 hr
  Knee concentration: Ratio of Form 3 Compound/Form 1 Compound: 5.40
  Knee/plasma ratio: Ratio of Form 3 Compound/Form 1 Compound: 2.64
[3]; 1 mg/knee, 672 hr, monohydrate
  Mean Knee Concentration of Compound: 202000 ng/g
  Mean Knee/Plasma Concentration Ratio: 58300
[3]; 1 mg/knee, 1344 hr
  Knee concentration: Ratio of Form 3 Compound/Form 1 Compound: 13.6
  Knee/plasma ratio: Ratio of Form 3 Compound/Form 1 Compound: 1.96
[3]; [9]
  Mean Knee Concentration of Compound: 62200 ng/g
  Mean Knee/Plasma Concentration Ratio: 37200
[3]; male, Sprague Dawley, rat, knee joint, other: intra-articular injection to the left knee joint, 0.1 mg/knee, 1344 hr, read-out: Mean Knee Concentration of Compound
  concentration at 1344 hr: 383 ng/g
[4]
  hygroscopicity (dynamic vapor sorption isotherm): not hygroscopic
[5]
  average release rate: 0.35 %/hr
  one-half dissolution time: 112 h
[5]; simulated intra-articular fluid
  dialysis dissolution rate compared to Form 1: significantly lower

## COc1ccc(COc2ccc(Cn3c(N)nc4cc(-c5cnn(C)c5)cnc43)cc2OC)cc1 [Form 1 Compound, 3-(3-methoxy-4-((4-methoxybenzyl)oxy)benzyl)-6-(1-methyl-1H-pyrazol-4-yl)-3H-imidazo[4,5-b]pyridin-2-amine monohydrate, reference compound]
[1]; room temperature, stream of nitrogen gas
  dehydration behaviour: undergo dehydration at room temperature
[2]; Sprague Dawley, 0.1 mg/knee intra-articular
  Tmax: 4 h
[2]; male, Sprague Dawley, rat, 0.1 mg, 0.1 mg/knee intra-articular, read-out: AUC0-672
  AUC(0-t): 1350 ng·h/mL
[2]; male, Sprague Dawley, rat, 0.1 mg, 0.1 mg/knee intra-articular, read-out: AUC0-inf
  AUC0-inf: 1290 ng·h/mL
[2]; male, Sprague Dawley, rat, 0.1 mg, 0.1 mg/knee intra-articular, summary from second six animals, read-out: AUC0-1344
  AUC(0-t): 1330 ng·h/mL
[2]; [6]
  Cmax: 34.3 ng/mL
[2]; [7]
  AUC0-672: 10600 ng·h/mL
  AUC0-inf: 11800 ng·h/mL
  Cmax: 71.6 ng/mL
[2]; 1 mg/knee intra-articular, summary from second six animals, monohydrate
  AUC0-1344: 11100 ng·h/mL
[3]; monohydrate
  knee concentration of compound (in words): below the limit of quantification in the majority of animals
[3]; [8]
  Mean Knee Concentration of Compound: 852 ng/g
  Mean Knee/Plasma Concentration Ratio: 58800
[3]; 0.1 mg/knee, 1344 hr, monohydrate
  Mean Knee Concentration of Compound: <LLOQ
[3]; 1 mg/knee, 672 hr, monohydrate
  Mean Knee Concentration of Compound: 37400 ng/g
  Mean Knee/Plasma Concentration Ratio: 22100
[3]; [9]
  Mean Knee Concentration of Compound: 4560 ng/g
  Mean Knee/Plasma Concentration Ratio: 19000
[5]
  average release rate: 0.54 %/hr
  one-half dissolution time: 66 h
